Laboratory results taken from US9694016B2 (Novartis AG, priority 2013, dated 2017).

biological target: b-Raf (V600E) (Homo sapiens (Human), UniProt P15056, V600E); conditions: read-out: b-Raf IC-50; AlphaScreen, 60 min pre-incubation, 3 hours reaction
Sequence (P15056 whole entry V600E): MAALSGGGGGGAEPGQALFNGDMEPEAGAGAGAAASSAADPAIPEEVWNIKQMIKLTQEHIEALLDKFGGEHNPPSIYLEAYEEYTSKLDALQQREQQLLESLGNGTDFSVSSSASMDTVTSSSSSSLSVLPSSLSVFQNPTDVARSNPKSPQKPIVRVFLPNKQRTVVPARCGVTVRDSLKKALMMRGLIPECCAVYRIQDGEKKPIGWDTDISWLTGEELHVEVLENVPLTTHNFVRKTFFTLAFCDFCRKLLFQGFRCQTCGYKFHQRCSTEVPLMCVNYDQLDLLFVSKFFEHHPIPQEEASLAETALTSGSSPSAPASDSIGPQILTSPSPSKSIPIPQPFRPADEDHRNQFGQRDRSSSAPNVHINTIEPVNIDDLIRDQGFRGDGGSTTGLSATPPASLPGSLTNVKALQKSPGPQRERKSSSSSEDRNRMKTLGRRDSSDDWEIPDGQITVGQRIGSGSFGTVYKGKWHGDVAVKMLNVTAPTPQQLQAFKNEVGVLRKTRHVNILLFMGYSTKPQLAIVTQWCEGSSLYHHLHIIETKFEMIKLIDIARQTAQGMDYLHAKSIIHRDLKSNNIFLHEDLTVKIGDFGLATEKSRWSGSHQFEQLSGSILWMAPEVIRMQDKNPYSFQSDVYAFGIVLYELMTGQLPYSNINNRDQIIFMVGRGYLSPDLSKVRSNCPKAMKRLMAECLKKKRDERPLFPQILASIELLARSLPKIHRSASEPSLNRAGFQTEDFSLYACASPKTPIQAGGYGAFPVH

Row | SMILES | IC50 [nM]
1 | Cc1ccc(C(=O)Nc2cccc(C(C)C)c2)cc1-c1cc(N2CCOCC2)c(=O)n(C)c1 [Example 436, N-(3-isopropylphenyl)-4-methyl-3-(1-methyl-5-morpholino-6-oxo-1,6-dihydropyridin-3-yl)benzamide] | 3.8
2 | Cc1ccc(C(=O)Nc2cccc(-c3nnco3)c2)cc1-c1cc(N2CCOCC2)c(=O)n(C)c1 [Example 437, N-(3-(1,3,4-oxadiazol-2-yl)phenyl)-4-methyl-3-(1-methyl-5-morpholino-6-oxo-1,6-dihydropyridin-3-yl)benzamide] | 15.4
3 | Cc1ccc(C(=O)Nc2cccc(C(C)(C)O)c2)cc1-c1cc(N2CCOCC2)c(=O)n(C)c1 [Example 439, N-(3-(2-hydroxypropan-2-yl)phenyl)-4-methyl-3-(1-methyl-5-morpholino-6-oxo-1,6-dihydropyridin-3-yl)benzamide] | 6.3
4 | COc1cccc(NC(=O)c2ccc(C)c(-c3cc(N4CCOCC4)c(=O)n(C)c3)c2)c1 [Example 440, N-(3-methoxyphenyl)-4-methyl-3-(1-methyl-5-morpholino-6-oxo-1,6-dihydropyridin-3-yl)benzamide] | 93.9
5 | Cc1ccc(C(=O)Nc2cccc(OC(F)(F)F)c2)cc1-c1cc(N2CCOCC2)c(=O)n(C)c1 [Example 441, 4-methyl-3-(1-methyl-5-morpholino-6-oxo-1,6-dihydropyridin-3-yl)-N-(3-(trifluoromethoxy)phenyl)benzamide] | 33.2
6 | COc1cncc(NC(=O)c2ccc(C)c(-c3cc(N4CCOCC4)c(=O)n(C)c3)c2)c1 [Example 442, N-(5-methoxypyridin-3-yl)-4-methyl-3-(1-methyl-5-morpholino-6-oxo-1,6-dihydropyridin-3-yl)benzamide] | 68.7
7 | Cc1ncc(C(=O)Nc2cccc(C(F)(F)F)c2)cc1-c1cc(N2CCOCC2)c(=O)n(C)c1 [Example 443, 1′,2-dimethyl-5′-morpholino-6′-oxo-N-(3-(trifluoromethyl)phenyl)-1′,6′-dihydro-[3,3′-bipyridine]-5-carboxamide] | 6.2
8 | Cc1ncc(C(=O)Nc2cccc(C(C)(C)C#N)c2)cc1-c1cc(N2CCOCC2)c(=O)n(C)c1 [Example 444, N-(3-(2-cyanopropan-2-yl)phenyl)-1′,2-dimethyl-5′-morpholino-6′-oxo-1′,6′-dihydro-[3,3′-bipyridine]-5-carboxamide] | 44.8
9 | Cc1ncc(C(=O)Nc2cccc(C(F)F)c2)cc1-c1cc(N2CCOCC2)c(=O)n(C)c1 [Example 445, N-(3-(difluoromethyl)phenyl)-1′,2-dimethyl-5′-morpholino-6′-oxo-1′,6′-dihydro-[3,3′-bipyridine]-5-carboxamide] | 12
10 | Cc1ncc(C(=O)Nc2cccc(C(C)(C)O)c2)cc1-c1cc(N2CCOCC2)c(=O)n(C)c1 [Example 446, N-(3-(2-hydroxypropan-2-yl)phenyl)-1′,2-dimethyl-5′-morpholino-6′-oxo-1′,6′-dihydro-[3,3′-bipyridine]-5-carboxamide] | 100
11 | Cc1ccc(NC(=O)c2cccc(C(F)(F)F)c2)cc1-c1cc(N2CCOCC2=O)c(=O)n(C)c1 [Example 451, N-(4-methyl-3-(1-methyl-6-oxo-5-(3-oxomorpholino)-1,6-dihydropyridin-3-yl)phenyl)-3-(trifluoromethyl)benzamide] | 83.7
12 | CCN(C)c1cc(C(=O)Nc2ccc(C)c(-c3cc(N4CCOCC4)c(=O)n(C)c3)c2)ccn1 [Example 453, 2-(ethyl(methyl)amino)-N-(4-methyl-3-(1-methyl-5-morpholino-6-oxo-1,6-dihydropyridin-3-yl)phenyl)isonicotinamide] | 4.3
13 | Cc1ccc(NC(=O)c2ccnc(N3CCC3)c2)cc1-c1cc(N2CCOCC2)c(=O)n(C)c1 [Example 454, 2-(azetidin-1-yl)-N-(4-methyl-3-(1-methyl-5-morpholino-6-oxo-1,6-dihydropyridin-3-yl)phenyl)isonicotinamide] | 1.9
14 | COCCN(C)c1cc(C(=O)Nc2ccc(C)c(-c3cc(N4CCOCC4)c(=O)n(C)c3)c2)ccn1 [Example 455, 2-((2-methoxyethyl)(methyl)amino)-N-(4-methyl-3-(1-methyl-5-morpholino-6-oxo-1,6-dihydropyridin-3-yl)phenyl)isonicotinamide] | 2.8
15 | Cc1ccc(NC(=O)c2ccnc(N(C)CCO)c2)cc1-c1cc(N2CCOCC2)c(=O)n(C)c1 [Example 456] | 3.3
16 | CNCCN(C)c1cc(C(=O)Nc2ccc(C)c(-c3cc(N4CCOCC4)c(=O)n(C)c3)c2)ccn1 [Example 457, 2-(methyl(2-(methylamino)ethyl)amino)-N-(4-methyl-3-(1-methyl-5-morpholino-6-oxo-1,6-dihydropyridin-3-yl)phenyl)isonicotinamide] | 30.5
17 | Cc1ccc(NC(=O)c2ccc(C(O)CO)c(C(F)(F)F)c2)cc1-c1cc(N2CCOCC2)c(=O)n(C)c1 (centres unmarked) [Example 460, 4-(1,2-dihydroxyethyl)-N-(4-methyl-3-(1-methyl-5-morpholino-6-oxo-1,6-dihydropyridin-3-yl)phenyl)-3-(trifluoromethyl)benzamide] | 15.9

same assay, conditions: read-out: b-Raf IC-50; Table 2; AlphaScreen, 3 hours reaction

Row | SMILES | IC50 [nM]
18 | Cn1cc(-c2cc(NC(=O)c3ccnc(C(F)(F)F)c3)ccc2C#N)cc(N2CCOCC2)c1=O [Example 415, N-(4-cyano-3-(1-methyl-5-morpholino-6-oxo-1,6-dihydropyridin-3-yl)phenyl)-2-(trifluoromethyl)isonicotinamide] | 10100
19 | Cn1cc(-c2cc(NC(=O)c3cccc(C(F)F)c3)ccc2F)cc(N2CCOCC2)c1=O [Example 417, 3-(difluoromethyl)-N-(4-fluoro-3-(1-methyl-5-morpholino-6-oxo-1,6-dihydropyridin-3-yl)phenyl)benzamide] | 3.1
20 | Cn1cc(-c2cc(NC(=O)c3ccnc(C(F)(F)F)c3)ccc2F)cc(N2CCOCC2)c1=O [Example 418] | 3.5
21 | Cn1cc(-c2cc(NC(=O)c3ccnc(C(C)(F)F)c3)ccc2F)cc(N2CCOCC2)c1=O [Example 419] | 4.3
22 | Cn1cc(-c2cc(NC(=O)c3cccc(C(F)F)c3)ccc2C#N)cc(N2CCOCC2)c1=O [Example 420, N-(4-cyano-3-(1-methyl-5-morpholino-6-oxo-1,6-dihydropyridin-3-yl)phenyl)-3-(difluoromethyl)benzamide] | 3600
23 | CC(C)c1cc(C(=O)Nc2ccc(Cl)c(-c3cc(N4CCOCC4)c(=O)n(C)c3)c2)ccn1 [Example 421, N-(4-chloro-3-(1-methyl-5-morpholino-6-oxo-1,6-dihydropyridin-3-yl)phenyl)-2-isopropylisonicotinamide] | 1
24 | Cn1cc(-c2cc(C(=O)Nc3cccc(C(F)(F)F)c3)cnc2Cl)cc(N2CCOCC2)c1=O [Example 423, 2-chloro-1′-methyl-5′-morpholino-6′-oxo-N-(3-(trifluoromethyl)phenyl)-1′,6′-dihydro-[3,3′-bipyridine]-5-carboxamide] | 6
25 | Cn1cc(-c2cc(C(=O)Nc3cccc(C(C)(C)O)c3)cnc2Cl)cc(N2CCOCC2)c1=O [Example 424, 2-chloro-N-(3-(2-hydroxypropan-2-yl)phenyl)-t-methyl-5′-morpholino-6′-oxo-1′,6′-dihydro-[3,3′-bipyridine]-5-carboxamide] | 50.4
26 | Cn1cc(-c2cc(C(=O)Nc3cccc(C(F)(F)F)c3)ccc2Cl)cc(N2CCOCC2)c1=O [Example 425, 4-chloro-3-(1-methyl-5-morpholino-6-oxo-1,6-dihydropyridin-3-yl)-N-(3-(trifluoromethyl)phenyl)benzamide] | 2.6
27 | Cn1cc(-c2cc(C(=O)Nc3cccc(C(F)F)c3)ccc2Cl)cc(N2CCOCC2)c1=O [Example 426, 4-chloro-N-(3-(difluoromethyl)phenyl)-3-(1-methyl-5-morpholino-6-oxo-1,6-dihydropyridin-3-yl)benzamide] | 2.4
28 | Cn1cc(-c2cc(C(=O)Nc3cccc(C(C)(C)C#N)c3)ccc2Cl)cc(N2CCOCC2)c1=O [Example 427, 4-chloro-N-(3-(2-cyanopropan-2-yl)phenyl)-3-(1-methyl-5-morpholino-6-oxo-1,6-dihydropyridin-3-yl)benzamide] | 6
29 | Cc1cn(-c2cc(NC(=O)c3ccc(C)c(-c4cc(N5CCOCC5)c(=O)n(C)c4)c3)cc(C(F)(F)F)c2)cn1 [Example 428, 4-methyl-N-(3-(4-methyl-1H-imidazol-1-yl)-5-(trifluoromethyl)phenyl)-3-(1-methyl-5-morpholino-6-oxo-1,6-dihydropyridin-3-yl)benzamide] | 10.1
30 | Cc1ccc(C(=O)Nc2ccccc2)cc1-c1cc(N2CCOCC2)c(=O)n(C)c1 [Example 429, 4-methyl-3-(1-methyl-5-morpholino-6-oxo-1,6-dihydropyridin-3-yl)-N-phenylbenzamide] | 33.7
31 | Cc1ccc(C(=O)Nc2cccc(C(F)F)c2)cc1-c1cc(N2CCOCC2)c(=O)n(C)c1 [Example 430, N-(3-(difluoromethyl)phenyl)-4-methyl-3-(1-methyl-5-morpholino-6-oxo-1,6-dihydropyridin-3-yl)benzamide] | 1.6
32 | Cc1ccc(C(=O)Nc2cccc(C(C)(C)C#N)c2)cc1-c1cc(N2CCOCC2)c(=O)n(C)c1 [Example 431, N-(3-(2-cyanopropan-2-yl)phenyl)-4-methyl-3-(1-methyl-5-morpholino-6-oxo-1,6-dihydropyridin-3-yl)benzamide] | 3.7
33 | Cc1ccc(C(=O)Nc2ccccn2)cc1-c1cc(N2CCOCC2)c(=O)n(C)c1 [Example 432, 4-methyl-3-(1-methyl-5-morpholino-6-oxo-1,6-dihydropyridin-3-yl)-N-(pyridin-2-yl)benzamide] | 99
34 | Cc1ccc(C(=O)Nc2cccnc2)cc1-c1cc(N2CCOCC2)c(=O)n(C)c1 [Example 433, 4-methyl-3-(1-methyl-5-morpholino-6-oxo-1,6-dihydropyridin-3-yl)-N-(pyridin-3-yl)benzamide] | 200
35 | CCc1cccc(NC(=O)c2ccc(C)c(-c3cc(N4CCOCC4)c(=O)n(C)c3)c2)c1 [Example 435, N-(3-ethylphenyl)-4-methyl-3-(1-methyl-5-morpholino-6-oxo-1,6-dihydropyridin-3-yl)benzamide] | 2.4
